The text below walks through data of PMC7724566, “Prospects for Clinical Development of Stat5 Inhibitor IST5-002: High Transcriptomic Specificity in Prostate Cancer and Low Toxicity In Vivo” (Cancers, 2020).

One test concerns the target T1, PLK4 (Homo sapiens, UniProt O00444).
T1 construct: purchased Reaction Biology (JAK1/2/3, TYK2); Luceome Biotechnologies KinaseSeeker (others)
Nature of the test: Kinase Seeker luminescence cell-free assay. Format: binding. Conditions: percent activity of kinase after exposure to IST5 1 µM. The protocol:
(§1) For Jak1, Jak2, Jak3 and Tyk2, a radiometric filtration binding assay was conducted by Reaction Biologicals (Malvern, PA, USA) (Table 1). This radiometric assay is a cell-free assay which is based on conventional filter-binding assays, directly measuring kinase catalytic activity toward a specific substrate. For evaluation of the activity of the other kinases, the Kinase Seeker Technology was utilized (Luceome Biotechnologies, Tucson, AZ, USA), which is a luminescence-based cell-free assay. In this assay, the reassembly of luciferase fragments is mediated by the interaction of a kinase with an active site-dependent probe. The competitive displacement of the probe by an inhibitor is measured by a change in luminescence signal. Percent activity of each kinase after exposure to IST5 (1 µM) is presented.

The target of a further test is T2, FYN (Homo sapiens, UniProt P06241).
T2 construct: purchased Reaction Biology (JAK1/2/3, TYK2); Luceome Biotechnologies KinaseSeeker (others)
As to the kind of experiment: Kinase Seeker luminescence cell-free assay. The format is binding. As to conditions: percent activity of kinase after exposure to IST5 1 µM. The protocol: as §1

A further test has as its target T3, ABL1 (Homo sapiens, UniProt P00519).
T3 construct: purchased Reaction Biology (JAK1/2/3, TYK2); Luceome Biotechnologies KinaseSeeker (others)
Nature of the test: Kinase Seeker luminescence cell-free assay. The format is binding. Conditions: percent activity of kinase after exposure to IST5 1 µM. The protocol: as §1

In another test the target is T4, FAK (Homo sapiens, UniProt Q05397).
T4 construct: purchased Reaction Biology (JAK1/2/3, TYK2); Luceome Biotechnologies KinaseSeeker (others)
As to the kind of experiment: Kinase Seeker luminescence cell-free assay. Format: binding. As to conditions: percent activity of kinase after exposure to IST5 1 µM. The protocol:
as §1

The target in a further test is T5, AKT1 (Homo sapiens, UniProt P31749).
T5 construct: purchased Reaction Biology (JAK1/2/3, TYK2); Luceome Biotechnologies KinaseSeeker (others)
Nature of the test: Kinase Seeker luminescence cell-free assay. As to conditions: percent activity of kinase after exposure to IST5 1 µM. Format: binding. The protocol:
as §1

Another test concerns the target T6, ITK (Homo sapiens, UniProt Q08881).
T6 construct: purchased Reaction Biology (JAK1/2/3, TYK2); Luceome Biotechnologies KinaseSeeker (others)
Nature of the test: Kinase Seeker luminescence cell-free assay. As to conditions: percent activity of kinase after exposure to IST5 1 µM. Format: binding. The protocol:
as §1

Another test deals with T7, FGFR2 (Homo sapiens, UniProt P21802).
T7 construct: purchased Reaction Biology (JAK1/2/3, TYK2); Luceome Biotechnologies KinaseSeeker (others)
T7 sequence (P21802 22-821): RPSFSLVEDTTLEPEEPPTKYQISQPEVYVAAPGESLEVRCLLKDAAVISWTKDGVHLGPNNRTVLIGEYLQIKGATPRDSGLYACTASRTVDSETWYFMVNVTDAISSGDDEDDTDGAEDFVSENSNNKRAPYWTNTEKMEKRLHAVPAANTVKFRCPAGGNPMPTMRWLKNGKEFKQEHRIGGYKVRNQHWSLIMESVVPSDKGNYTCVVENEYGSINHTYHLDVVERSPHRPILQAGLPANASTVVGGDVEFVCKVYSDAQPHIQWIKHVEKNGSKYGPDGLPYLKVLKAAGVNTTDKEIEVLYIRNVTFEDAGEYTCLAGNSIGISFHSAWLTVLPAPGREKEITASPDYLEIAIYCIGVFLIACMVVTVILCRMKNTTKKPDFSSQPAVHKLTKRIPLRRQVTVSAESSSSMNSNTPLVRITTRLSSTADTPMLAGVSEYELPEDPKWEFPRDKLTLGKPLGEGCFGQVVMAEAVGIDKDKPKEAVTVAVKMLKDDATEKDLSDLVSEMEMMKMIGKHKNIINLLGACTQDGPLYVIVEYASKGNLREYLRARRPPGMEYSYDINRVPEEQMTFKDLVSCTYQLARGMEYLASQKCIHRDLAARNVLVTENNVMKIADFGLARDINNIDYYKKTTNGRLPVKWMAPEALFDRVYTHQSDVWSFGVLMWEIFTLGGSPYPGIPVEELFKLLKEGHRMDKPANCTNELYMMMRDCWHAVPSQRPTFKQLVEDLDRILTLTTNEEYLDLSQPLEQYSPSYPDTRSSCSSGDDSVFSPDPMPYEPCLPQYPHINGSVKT
As to the kind of experiment: Kinase Seeker luminescence cell-free assay. As to conditions: percent activity of kinase after exposure to IST5 1 µM. Format: binding. The protocol: as §1

The next test addresses T8, IGF1R (Homo sapiens, UniProt P08069).
T8 construct: purchased Reaction Biology (JAK1/2/3, TYK2); Luceome Biotechnologies KinaseSeeker (others)
As to the kind of experiment: Kinase Seeker luminescence cell-free assay. Format: binding. As to conditions: percent activity of kinase after exposure to IST5 1 µM. The protocol:
as §1

The target of another test is T9, SRC (Homo sapiens, UniProt P12931).
T9 construct: purchased Reaction Biology (JAK1/2/3, TYK2); Luceome Biotechnologies KinaseSeeker (others)
As to the kind of experiment: Kinase Seeker luminescence cell-free assay. The format is binding. Conditions: percent activity of kinase after exposure to IST5 1 µM. The protocol: as §1

The target in the next test is T10, DDR1 (Homo sapiens, UniProt Q08345).
T10 construct: purchased Reaction Biology (JAK1/2/3, TYK2); Luceome Biotechnologies KinaseSeeker (others)
T10 sequence (Q08345 19-913): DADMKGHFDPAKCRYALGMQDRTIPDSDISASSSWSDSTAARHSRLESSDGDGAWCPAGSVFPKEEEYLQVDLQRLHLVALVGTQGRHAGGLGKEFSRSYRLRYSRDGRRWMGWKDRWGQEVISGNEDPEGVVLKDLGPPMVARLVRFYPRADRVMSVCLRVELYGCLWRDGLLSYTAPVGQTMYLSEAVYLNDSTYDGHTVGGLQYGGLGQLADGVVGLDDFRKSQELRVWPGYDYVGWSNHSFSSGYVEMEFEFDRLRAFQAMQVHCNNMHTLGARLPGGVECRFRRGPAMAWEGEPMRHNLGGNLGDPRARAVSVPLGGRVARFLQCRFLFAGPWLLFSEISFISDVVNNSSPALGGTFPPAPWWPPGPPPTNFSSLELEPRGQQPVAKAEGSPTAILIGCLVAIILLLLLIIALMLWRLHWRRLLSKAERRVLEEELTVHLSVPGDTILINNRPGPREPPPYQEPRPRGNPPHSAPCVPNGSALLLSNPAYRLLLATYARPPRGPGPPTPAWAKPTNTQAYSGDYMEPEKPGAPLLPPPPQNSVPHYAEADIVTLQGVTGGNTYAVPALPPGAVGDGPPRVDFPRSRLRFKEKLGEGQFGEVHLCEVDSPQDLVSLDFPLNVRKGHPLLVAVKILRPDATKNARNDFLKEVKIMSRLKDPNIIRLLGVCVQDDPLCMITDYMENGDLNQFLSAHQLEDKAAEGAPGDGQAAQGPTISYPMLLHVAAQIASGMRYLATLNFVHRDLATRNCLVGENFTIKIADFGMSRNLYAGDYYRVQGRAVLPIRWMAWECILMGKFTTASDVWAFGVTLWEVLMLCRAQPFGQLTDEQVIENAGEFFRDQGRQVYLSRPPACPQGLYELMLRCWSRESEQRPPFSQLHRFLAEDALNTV
Nature of the test: Kinase Seeker luminescence cell-free assay. Format: binding. As to conditions: percent activity of kinase after exposure to IST5 1 µM. The protocol:
as §1

The target of another test is T11, MET (Homo sapiens, UniProt P08581).
T11 construct: purchased Reaction Biology (JAK1/2/3, TYK2); Luceome Biotechnologies KinaseSeeker (others)
Nature of the test: Kinase Seeker luminescence cell-free assay. The format is binding. Conditions: percent activity of kinase after exposure to IST5 1 µM. The protocol:
as §1

The target in another test is T12, EPHA1 (Homo sapiens, UniProt P21709).
T12 construct: purchased Reaction Biology (JAK1/2/3, TYK2); Luceome Biotechnologies KinaseSeeker (others)
As to the kind of experiment: Kinase Seeker luminescence cell-free assay. Format: binding. As to conditions: percent activity of kinase after exposure to IST5 1 µM. The protocol: as §1

The next test relates to PYK1. As to the kind of experiment: Kinase Seeker luminescence cell-free assay. Format: binding. As to conditions: percent activity of kinase after exposure to IST5 1 µM. The protocol:
as §1

The next test concerns the target T13, Stat5 (Homo sapiens, UniProt P42229).
T13 construct: expressed in transfected cells; host or cells: CWR22Rv1
Nature of the test: Native-gel-based Stat5 dimerization assay, CWR22Rv1 cells. The format is cell-based. Conditions: 1 µM, 6 h, Prl (10 nM) stimulated CWR22Rv1 cells, STAT5A-eYFP. The text has this: Having established that IST5 and IST5-M both interrupt phosphorylation of Stat5, we next investigated the potency of IST5-M vs. IST5 in suppressing dimerization of Stat5 in PC cells. First, we performed a native Polyacrylamide Gel Electrophoresis (PAGE) based Stat5 dimerization assay established originally by Fahrenkamp et al., where CWR22Rv1 cells were transfected with STAT5A-eYFP (Stat5 wild type), STAT5A-N642H-eYFP (constitutive activated Stat5 by N642H mutation, as a positive control) or STAT3-eYFP (Stat3 wild type, as a negative control) constructs for 3 days (Figure 5A). CWR22Rv1 cells were starved for 16 h, pretreated with vanadate (1 mM) for 2 h, followed by treatment with vehicle, IST5 or IST5-M (1 µM) for 6 h and stimulation with Prl (10 nM) for 1 h.
Figure 5 Both IST5 and IST5-M suppress dimerization of Stat5 with similar efficacies in prostate cancer cells. (A), IST5 and IST5-M inhibit equally potently dimerization of Stat5 in native-gel-based Stat5 dimerization assay. […] Dimerization of Stat5 was analyzed by detection of the eYFP fluorescence of the native Coomassie gel. […] (E), differences in posttranslational modifications were detected between native and recombinant STAT5a using mass spectrometry. Native STAT5a from CWR22Rv1 cells and recombinant STAT5a from E. coli were gel-purified, digested using trypsin, and analyzed by bottom-up mass spectrometry. […]

T13 sequence (P42229 whole entry, species assumed): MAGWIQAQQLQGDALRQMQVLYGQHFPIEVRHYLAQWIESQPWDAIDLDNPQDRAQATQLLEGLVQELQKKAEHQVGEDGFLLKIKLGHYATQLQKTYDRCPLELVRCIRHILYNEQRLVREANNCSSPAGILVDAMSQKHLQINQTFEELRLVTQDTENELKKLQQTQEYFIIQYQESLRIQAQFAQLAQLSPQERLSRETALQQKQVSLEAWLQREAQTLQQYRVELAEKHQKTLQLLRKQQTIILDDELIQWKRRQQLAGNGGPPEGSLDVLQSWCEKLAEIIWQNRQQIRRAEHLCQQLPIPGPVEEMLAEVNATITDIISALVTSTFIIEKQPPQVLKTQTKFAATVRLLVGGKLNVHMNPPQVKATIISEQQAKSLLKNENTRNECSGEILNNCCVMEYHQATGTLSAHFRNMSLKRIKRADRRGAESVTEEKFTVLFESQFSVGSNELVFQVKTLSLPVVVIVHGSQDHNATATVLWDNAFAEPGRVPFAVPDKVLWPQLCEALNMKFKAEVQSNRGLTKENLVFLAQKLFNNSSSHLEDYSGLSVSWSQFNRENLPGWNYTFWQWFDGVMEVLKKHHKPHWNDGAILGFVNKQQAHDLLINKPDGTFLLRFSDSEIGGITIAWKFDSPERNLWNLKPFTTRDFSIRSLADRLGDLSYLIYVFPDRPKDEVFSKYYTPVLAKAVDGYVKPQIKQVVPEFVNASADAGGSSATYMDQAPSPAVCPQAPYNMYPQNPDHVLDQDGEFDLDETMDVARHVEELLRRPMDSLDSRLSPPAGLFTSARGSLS
T8 sequence (P08069 31-1367): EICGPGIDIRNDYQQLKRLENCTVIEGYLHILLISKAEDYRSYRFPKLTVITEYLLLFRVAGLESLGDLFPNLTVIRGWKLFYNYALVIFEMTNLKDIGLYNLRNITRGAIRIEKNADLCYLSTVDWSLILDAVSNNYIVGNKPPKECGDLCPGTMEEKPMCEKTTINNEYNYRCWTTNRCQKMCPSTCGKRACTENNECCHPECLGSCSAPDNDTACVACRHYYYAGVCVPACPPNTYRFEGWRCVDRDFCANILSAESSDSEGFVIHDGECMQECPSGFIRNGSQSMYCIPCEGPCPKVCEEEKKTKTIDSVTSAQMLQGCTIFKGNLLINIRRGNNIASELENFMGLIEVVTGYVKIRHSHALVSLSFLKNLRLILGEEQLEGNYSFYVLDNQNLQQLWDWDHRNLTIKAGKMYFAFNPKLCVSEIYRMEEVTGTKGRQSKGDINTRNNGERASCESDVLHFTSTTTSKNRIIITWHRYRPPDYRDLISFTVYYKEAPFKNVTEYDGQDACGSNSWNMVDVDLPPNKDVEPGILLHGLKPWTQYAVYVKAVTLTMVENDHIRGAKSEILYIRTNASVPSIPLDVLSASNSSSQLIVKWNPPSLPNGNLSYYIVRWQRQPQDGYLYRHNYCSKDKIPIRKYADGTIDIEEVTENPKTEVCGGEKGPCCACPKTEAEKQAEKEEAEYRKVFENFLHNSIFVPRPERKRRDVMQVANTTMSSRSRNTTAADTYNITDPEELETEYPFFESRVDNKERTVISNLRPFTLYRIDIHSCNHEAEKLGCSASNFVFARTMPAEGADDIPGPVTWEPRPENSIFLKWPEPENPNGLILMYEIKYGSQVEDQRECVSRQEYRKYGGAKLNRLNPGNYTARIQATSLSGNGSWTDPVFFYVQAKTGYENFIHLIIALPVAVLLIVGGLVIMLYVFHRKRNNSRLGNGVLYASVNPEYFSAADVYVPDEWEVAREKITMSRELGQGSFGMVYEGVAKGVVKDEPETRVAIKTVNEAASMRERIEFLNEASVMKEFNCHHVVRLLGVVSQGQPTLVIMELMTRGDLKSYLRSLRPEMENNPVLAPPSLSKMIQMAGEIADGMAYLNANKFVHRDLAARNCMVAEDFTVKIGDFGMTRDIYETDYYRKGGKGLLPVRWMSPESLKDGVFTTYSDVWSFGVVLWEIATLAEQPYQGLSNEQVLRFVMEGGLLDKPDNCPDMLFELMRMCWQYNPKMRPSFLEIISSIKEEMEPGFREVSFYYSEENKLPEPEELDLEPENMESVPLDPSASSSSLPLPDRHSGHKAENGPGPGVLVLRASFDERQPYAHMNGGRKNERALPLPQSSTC
T1 sequence (O00444 whole entry): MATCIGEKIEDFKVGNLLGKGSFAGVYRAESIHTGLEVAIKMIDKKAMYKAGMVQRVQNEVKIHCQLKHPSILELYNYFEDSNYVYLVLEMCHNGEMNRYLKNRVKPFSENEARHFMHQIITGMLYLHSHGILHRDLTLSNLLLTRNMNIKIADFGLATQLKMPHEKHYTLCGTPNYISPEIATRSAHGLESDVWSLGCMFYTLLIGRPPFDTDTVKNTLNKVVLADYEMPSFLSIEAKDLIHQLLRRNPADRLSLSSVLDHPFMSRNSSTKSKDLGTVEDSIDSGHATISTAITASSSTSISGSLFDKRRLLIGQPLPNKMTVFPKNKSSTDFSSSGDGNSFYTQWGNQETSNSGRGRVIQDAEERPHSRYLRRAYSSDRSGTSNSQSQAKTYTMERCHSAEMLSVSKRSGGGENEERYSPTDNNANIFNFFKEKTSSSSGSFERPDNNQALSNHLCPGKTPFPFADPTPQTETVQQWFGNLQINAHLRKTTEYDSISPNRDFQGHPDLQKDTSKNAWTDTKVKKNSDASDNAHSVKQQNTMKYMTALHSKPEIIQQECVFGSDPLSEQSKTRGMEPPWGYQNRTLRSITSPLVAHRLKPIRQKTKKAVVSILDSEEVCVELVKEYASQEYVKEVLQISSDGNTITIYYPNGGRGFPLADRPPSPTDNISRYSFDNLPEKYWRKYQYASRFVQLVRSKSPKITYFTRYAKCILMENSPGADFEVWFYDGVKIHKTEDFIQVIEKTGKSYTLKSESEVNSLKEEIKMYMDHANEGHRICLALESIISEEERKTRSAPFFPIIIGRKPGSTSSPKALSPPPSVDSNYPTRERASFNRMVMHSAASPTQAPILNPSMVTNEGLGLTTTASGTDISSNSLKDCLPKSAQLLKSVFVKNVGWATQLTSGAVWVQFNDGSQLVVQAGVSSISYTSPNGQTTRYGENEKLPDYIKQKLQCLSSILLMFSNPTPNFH

Consider `O=P(O)(O)OCC1OC(n2cnc3c(NCc4ccccc4)ncnc32)C(O)C1O` (centres unmarked) [IST5], for which the Activity at PLK4 amounted to 85.8%; on FYN it was 95.8%; at ABL1 it was 88.3%; on FAK, 99.0%; at AKT1 it was 100.0%; on ITK, 100.0%. The Activity worked out at 85.7% on FGFR2; 100.0% on IGF1R; 92.1% at SRC; 89.3% at DDR1; 100.0% on MET; 94.0% at EPHA1. This compound also displayed an Activity in the test with PYK1 of 93.4%. Moreover, the “inhibition of Stat5 dimerization” value at Stat5 was “inhibited robustly”.
